According to the supplement of paper PMC8149375:

How the values were obtained:
Settings in all cases: treatment: drug + dasatinib (fixed dose, not stated); 5 days
[1] = tested on: 769-P; test: GI50 of drug in presence of dasatinib; higher = less potent
Procedure: (§1)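 Primary HTS combination arm: 8 RCC cell lines treated with 8 doses (up to 10 uM) of each library drug plus a fixed dose of dasatinib (dose not stated) for 5 days; viability read by CellTiter-Glo and normalised to DMSO. GI50 was fitted with XLfit, AUC is the area under the dose-response curve, and minimum viability is the lowest fraction of DMSO viability across doses.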

[2] = tested on: 786-O; test: as above
Procedure: as §1

[3] = tested on: A498; test: as above
Procedure: as §1

[4] = tested on: ACHN; test: as above
Procedure: as §1

[5] = tested on: CAKI-1; test: as above
Procedure: as §1

[6] = tested on: SN12C; test: as above
Procedure: as §1

[7] = tested on: TK-10; test: as above
Procedure: as §1

[8] = tested on: UO-31; test: as above
Procedure: as §1

[9] = tested on: 769-P; test: minimum viability across doses, drug + dasatinib, relative to DMSO (fraction); higher = less growth inhibition
Procedure: as §1

[10] = tested on: 786-O; test: as above
Procedure: as §1

[11] = tested on: A498; test: as above
Procedure: as §1

[12] = tested on: ACHN; test: as above
Procedure: as §1

[13] = tested on: CAKI-1; test: as above
Procedure: as §1

[14] = tested on: SN12C; test: as above
Procedure: as §1

[15] = tested on: TK-10; test: as above
Procedure: as §1

[16] = tested on: UO-31; test: as above
Procedure: as §1

[17] = tested on: 769-P; test: AUC of dose-response viability curve, drug + dasatinib, normalised to DMSO (arbitrary (AUC of normalised viability)); higher = less growth inhibition
Procedure: as §1

[18] = tested on: 786-O; test: as above
Procedure: as §1

[19] = tested on: A498; test: as above
Procedure: as §1

[20] = tested on: ACHN; test: as above
Procedure: as §1

[21] = tested on: CAKI-1; test: as above
Procedure: as §1

[22] = tested on: SN12C; test: as above
Procedure: as §1

[23] = tested on: TK-10; test: as above
Procedure: as §1

[24] = tested on: UO-31; test: as above
Procedure: as §1

SMILES | GI50 of drug [1] | GI50 of drug [2] | GI50 of drug [3] | GI50 of drug [4] | GI50 of drug [5] | GI50 of drug [6] | GI50 of drug [7] | GI50 of drug [8] | minimum viability across doses [9] | minimum viability across doses [10] | minimum viability across doses [11] | minimum viability across doses [12] | minimum viability across doses [13] | minimum viability across doses [14] | minimum viability across doses [15] | minimum viability across doses [16] | AUC of dose-response viability curve [17] | AUC of dose-response viability curve [18] | AUC of dose-response viability curve [19] | AUC of dose-response viability curve [20] | AUC of dose-response viability curve [21] | AUC of dose-response viability curve [22] | AUC of dose-response viability curve [23] | AUC of dose-response viability curve [24]
COc1cccc2cc(-c3nc([C@H]4CC[C@H](C(=O)O)CC4)n4ncnc(N)c34)[nH]c12 [OSI-027] + Cc1nc(Nc2ncc(C(=O)Nc3c(C)cccc3Cl)s2)cc(N2CCN(CCO)CC2)n1 [dasatinib] | 2380 nM | 252 nM | 4020 nM | 322 nM | 341 nM | 1110 nM | 1100 nM | 2240 nM | 0.227 | 0.0675 | 0.139 | 0.0877 | 0.0226 | 0.15 | 0.152 | 0.00633 | 2.25 | 1.84 | 3.08 | 1.67 | 1.65 | 2.05 | 2.23 | 2.91
C#Cc1cccc(Nc2ncnc3cc(OCCOC)c(OCCO)cc23)c1.Cl [OSI-420 (Desmethyl Erlotinib)] + Cc1nc(Nc2ncc(C(=O)Nc3c(C)cccc3Cl)s2)cc(N2CCN(CCO)CC2)n1 [dasatinib] | 510 nM | < 3 nM | > 10000 nM | 23.1 nM | 1070 nM | > 10000 nM | 2320 nM | 8630 nM | 0.226 | 0.403 | 0.761 | 0.0775 | 0.11 | 0.442 | 0.379 | 0.325 | 1.96 | 2.22 | 3.08 | 1.35 | 1.93 | 2.36 | 2.18 | 3.77
O=C(Nc1ccc(OC(F)(F)F)cc1)c1sccc1NCc1ccnc2ccccc12 [OSI-930] + Cc1nc(Nc2ncc(C(=O)Nc3c(C)cccc3Cl)s2)cc(N2CCN(CCO)CC2)n1 [dasatinib] | 3090 nM | 4480 nM | > 10000 nM | 2350 nM | 3170 nM | 6210 nM | 6520 nM | 4590 nM | 0.24 | 0.32 | 0.685 | 0.129 | 0.136 | 0.174 | 0.395 | 0.0216 | 2.23 | 2.41 | 3.69 | 2.07 | 2.23 | 2.57 | 2.71 | 3.25
COC1=CC(c2cc3ccccc3[nH]2)=N/C1=C\c1[nH]c(C)cc1C.CS(=O)(=O)O [Obatoclax mesylate (GX15-070)] + Cc1nc(Nc2ncc(C(=O)Nc3c(C)cccc3Cl)s2)cc(N2CCN(CCO)CC2)n1 [dasatinib] | 145 nM | 31.6 nM | 277 nM | 15.4 nM | 122 nM | 153 nM | 86.6 nM | 305 nM | 0.0261 | 0.00545 | 0.0102 | 0.014 | 0.00534 | 0.00176 | 0.151 | 0.00726 | 1.46 | 0.949 | 1.76 | 0.992 | 1.4 | 1.38 | 1.58 | 2.23
C=CCc1cccc(/C=N/NC(=O)CN2CCN(Cc3ccccc3)CC2)c1O [PAC-1] + Cc1nc(Nc2ncc(C(=O)Nc3c(C)cccc3Cl)s2)cc(N2CCN(CCO)CC2)n1 [dasatinib] | 1420 nM | 427 nM | 4840 nM | 174 nM | 1350 nM | 3460 nM | 764 nM | 2010 nM | 0.0266 | 0.0103 | 0.169 | 0.0168 | 0.0701 | 0.0519 | 0.0728 | 0.0141 | 2.17 | 1.73 | 3.38 | 1.49 | 2.07 | 2.41 | 2.04 | 3.14
CCCCCCCCCCCCc1ccc(S(=O)(=O)Nc2nncs2)cc1 [PHT-427] + Cc1nc(Nc2ncc(C(=O)Nc3c(C)cccc3Cl)s2)cc(N2CCN(CCO)CC2)n1 [dasatinib] | > 10000 nM | 4870 nM | > 10000 nM | > 10000 nM | > 10000 nM | > 10000 nM | > 10000 nM | > 10000 nM | 0.631 | 0.455 | 0.912 | 0.47 | 0.656 | 0.691 | 0.67 | 1.13 | 2.43 | 1.91 | 3.58 | 1.87 | 2.43 | 2.53 | 2.53 | 4.28
Oc1cccc(-c2nc(N3CCOCC3)c3oc4ncccc4c3n2)c1 [PI-103] + Cc1nc(Nc2ncc(C(=O)Nc3c(C)cccc3Cl)s2)cc(N2CCN(CCO)CC2)n1 [dasatinib] | 461 nM | 73.1 nM | 386 nM | 31.4 nM | 322 nM | 156 nM | 389 nM | 115 nM | 0.0372 | 0.0069 | 0.111 | 0.0522 | 0.0121 | 0.116 | 0.0871 | 0.00638 | 1.84 | 1.43 | 2.06 | 1.2 | 1.63 | 1.57 | 1.86 | 1.49
Cc1ccc([N+](=O)[O-])cc1S(=O)(=O)N(C)/N=C/c1cnc2ccc(Br)cn12.Cl [PIK-75] + Cc1nc(Nc2ncc(C(=O)Nc3c(C)cccc3Cl)s2)cc(N2CCN(CCO)CC2)n1 [dasatinib] | 47.6 nM | 30.3 nM | 65.6 nM | 7.83 nM | 7.8 nM | 57.7 nM | 45.1 nM | 43 nM | 0.00622 | 0.00381 | 0.00818 | 0.00364 | 0.0337 | 0.00539 | 0.124 | 0.00696 | 1.11 | 0.918 | 1.29 | 0.571 | 0.683 | 1.07 | 1.4 | 1.22
CC(=O)Nc1nc(C)c(-c2ccc(Cl)c(S(=O)(=O)NCCO)c2)s1 [PIK-93] + Cc1nc(Nc2ncc(C(=O)Nc3c(C)cccc3Cl)s2)cc(N2CCN(CCO)CC2)n1 [dasatinib] | 4000 nM | 135 nM | 8110 nM | 976 nM | 1170 nM | 1890 nM | 3690 nM | 4320 nM | 0.352 | 0.127 | 0.476 | 0.188 | 0.068 | 0.259 | 0.251 | 0.0793 | 2.31 | 1.49 | 3.29 | 1.75 | 2.05 | 2.14 | 2.31 | 3.76
Cc1ccccc1-n1c(Cn2ncc3c(N)ncnc32)nc2cccc(C)c2c1=O [PIK-293] + Cc1nc(Nc2ncc(C(=O)Nc3c(C)cccc3Cl)s2)cc(N2CCN(CCO)CC2)n1 [dasatinib] | > 10000 nM | > 10000 nM | > 10000 nM | 2540 nM | > 10000 nM | > 10000 nM | > 10000 nM | > 10000 nM | 0.685 | 0.6 | 0.782 | 0.539 | 0.655 | 0.666 | 0.66 | 1.15 | 2.55 | 2.24 | 3.17 | 2.17 | 2.38 | 2.43 | 2.47 | 4.4
CCn1nnc2c(N3CCOCC3)nc(-c3ccc(NC(=O)Nc4ccc(C(=O)N5CCN(C)CC5)cc4)cc3)nc21 [PKI-402] + Cc1nc(Nc2ncc(C(=O)Nc3c(C)cccc3Cl)s2)cc(N2CCN(CCO)CC2)n1 [dasatinib] | 450 nM | 98 nM | 87.5 nM | 82.8 nM | 122 nM | 41.6 nM | 117 nM | 350 nM | 0.0547 | 0.00332 | 0.148 | 0.0465 | 0.0314 | 0.0929 | 0.0238 | 0.00734 | 1.86 | 1.41 | 1.66 | 1.25 | 1.48 | 1.19 | 1.55 | 2.39
CCCS(=O)(=O)Nc1ccc(F)c(C(=O)c2c[nH]c3ncc(Cl)cc23)c1F [PLX-4720] + Cc1nc(Nc2ncc(C(=O)Nc3c(C)cccc3Cl)s2)cc(N2CCN(CCO)CC2)n1 [dasatinib] | > 10000 nM | 2740 nM | > 10000 nM | 1070 nM | 1700 nM | > 10000 nM | 5470 nM | > 10000 nM | 0.641 | 0.212 | 0.765 | 0.127 | 0.0731 | 0.679 | 0.361 | 0.806 | 2.48 | 2.13 | 3 | 1.93 | 2.08 | 2.47 | 2.44 | 3.22
CC(C)n1nc(-c2cc3cc(O)ccc3[nH]2)c2c(N)ncnc21 [PP242] + Cc1nc(Nc2ncc(C(=O)Nc3c(C)cccc3Cl)s2)cc(N2CCN(CCO)CC2)n1 [dasatinib] | 401 nM | 713 nM | 1350 nM | 24.5 nM | 158 nM | 357 nM | 253 nM | 1140 nM | 0.0492 | 0.00231 | 0.152 | 0.0314 | 0.0342 | 0.0689 | 0.0716 | 0.00386 | 1.86 | 1.74 | 2.41 | 1.19 | 1.51 | 1.74 | 1.86 | 2.82
Nc1ncnc2c1c(-c1cnc3[nH]ccc3c1)nn2C1CCCC1 [PP-121] + Cc1nc(Nc2ncc(C(=O)Nc3c(C)cccc3Cl)s2)cc(N2CCN(CCO)CC2)n1 [dasatinib] | 415 nM | 73.8 nM | 1270 nM | 132 nM | 126 nM | 337 nM | 261 nM | 896 nM | 0.0299 | 0.00453 | 0.0684 | 0.0126 | 0.00718 | 0.0517 | 0.0102 | 0.00907 | 1.74 | 1.44 | 2.5 | 1.41 | 1.41 | 1.73 | 1.67 | 2.71
